Reference: patent US20110177179A1, “PREPARATION OF BOTANICAL EXTRACTS CONTAINING ABSORBABLE COMPONENTS USING PHARMACEUTICAL PLATFORM TECHNOLOGY” (SINOVEDA CANADA, INC., priority 2010, published 2011)
Like-named read-outs stand apart in the source and are kept apart here. One block for each molecule: values may come before it.

Legend:
[1] = Hollman, van Trijp et al. 1997; cited from earlier work
colonic bacteria = experiment: Metabolism by colonic (intestinal) bacteria, anaerobic incubation with fecal sample; type: in vitro ADME, rat; settings: for metabolism by colonic bacteria (change in level): Red clover methanolic extract, anaerobic, 37° C., up to 24 hours
Experimental: The effect of colonic bacteria on the stability of a methanolic extract of Red clover was evaluated. The procedures reported by Schneider et al. (Schneider, Simmering et al. 2000) was used to prepare a fecal sample collected from a rat. The extract was incubated anaerobically at 37° C. for a period of 24 hours.

MDCK cells = experiment: Permeability of extract components through MDCK cell monolayer; type: in vitro ADME; settings: for permeability versus molecular weight trend: Rhodiola 80% methanol extract
Experimental: Both CaCo-2 and MDCK cells were purchased form American Type Culture Collection (ATCC) and cultured with Dulbecco Modified Eagle's Media (DMEM) supplemented with 10% fetal bovine serum, 1% non-essential amino acids, and 10 mM HEPES. All tissue culture media and supplements were purchased from Sigma-Aldrich. Following Yee's method (Yee 1997), CaCo-2 cells were seeded into transwell culture dishes and cultured for 21 days. Lin et al's. (2003) method was used to seed and culture MDCK cells; the culturing period was three days.
(§1) Two natural products: Rhodiola rosea and Red yeast rice were individually extracted using the three solvents described in Example 1. Each extract was dissolved in Hanks' balanced salt buffer supplemented with 20 mM HEPES at 1 mg/ml. Permeability studies were carried out using MDCK cells and samples were taken from the apical side at 0 minute and 60 minutes and from the basal side at 60 minutes after incubation. Samples were diluted with a 1:1 mixture of methanol and acetonitrile prior to analysis using a LC/MS system. Permeability coefficient number was calculated as follows: Peff (cm/sec)=(Vr/(A*Cs))*(Cf/t), where Vr is the receiver side volume (basal; ml), A is the area of monolayer (cm^2), Cs is the starting concentration at the donor side (μM), Cf is the concentration at the receiver side at time t (μM), and t is the incubation time (seconds).
as §1, with “The extracts of” for “Two natural products: Rhodiola rosea and”, “clover” for “yeast rice”, “individually” for “individually extracted using the three solvents described in Example 1. Each extract was”, “(cm/sec)=(Vr/(A*C,))*(Cf/t),” for “(cm/sec)=(Vr/(A*Cs))*(Cf/t),”

[2] = major component of Chuanxiong; Yan, Ko et al. 2008; cited from earlier work
[3] = after 6 hours of incubation with colonic bacteria
[4] = Rhodiola rosea extracts, 1 mg/ml, 60 minutes, p<0.05

Molecule: C[C@@H]1O[C@@H](OC[C@H]2O[C@@H](Oc3c(-c4ccc(O)c(O)c4)oc4cc(O)cc(O)c4c3=O)[C@H](O)[C@@H](O)[C@@H]2O)[C@H](O)[C@H](O)[C@H]1O [Rutin]
detection in the blood stream [1]: not detected

metabolism by colonic bacteria (change in level) (colonic bacteria): appeared shortly after incubation | species left in the incubate (colonic bacteria; [3]): major species left
Molecule: Oc1ccc([C@H]2COc3cc(O)ccc3C2)cc1 [Equol]

Molecule: CC[C@H](C)C(=O)O[C@H]1C[C@@H](C)C=C2C=C[C@H](C)[C@H](CC[C@@H]3C[C@@H](O)CC(=O)O3)[C@H]21 [monacolin K]
permeability, comparison of water, 80% methanol and hexane extracts (MDCK cells; Red yeast rice extracts, 1 mg/ml, 60 minutes): highest in the hexane extract

species left in the incubate (colonic bacteria): major species left
Molecule: COc1ccc(-c2coc3cc(O)cc(O)c3c2=O)cc1 [biochanin A]

metabolism by colonic bacteria (change in level) (colonic bacteria): increase | species left in the incubate (colonic bacteria; [3]): major species left
Molecule: COc1ccc(-c2coc3cc(O)ccc3c2=O)cc1 [formononetin]

permeability, 80% methanol extract as opposed to water extract (MDCK cells; MDCK): significantly different
Molecule: hydroxyrosavin

Molecule: OC[C@@H]1O[C@@H](OC[C@H]2O[C@@H](OC/C=C/c3ccccc3)[C@H](O)[C@@H](O)[C@@H]2O)[C@H](O)[C@H]1O [rosarin]
permeability versus molecular weight trend (MDCK cells; 1 mg/ml, 60 minutes): deviated significantly from the trend | permeability, 80% methanol extract as opposed to water extract (MDCK cells; [4]): significantly different

Molecule: O[C@@H]1[C@@H](O)[C@H](OC/C=C/c2ccccc2)O[C@H](CO[C@@H]2OC[C@H](O)[C@H](O)[C@H]2O)[C@H]1O [rosavin]
permeability versus molecular weight trend (MDCK cells; 1 mg/ml, 60 minutes): deviated significantly from the trend | permeability, 80% methanol extract as opposed to water extract (MDCK cells; [4]): significantly different

Molecule: CCC/C=C1\OC(=O)C2=C1CCC=C2 [z-ligustilide]
bioavailability [2]: less than 3%
